Data: ChEMBL document CHEMBL5233229, “Recent advances in the development of ubiquitin-specific-processing protease 7 (USP7) inhibitors” (Eur J Med Chem, 2020)

Biological target: Ubiquitin carboxyl-terminal hydrolase 7 (Homo sapiens, UniProt Q93009)
Assay: Inhibition of human USP7 using ubiquitin-Rh110 as substrate incubated for 23 to 45 mins by fluorescence based assay

Sequence of Ubiquitin carboxyl-terminal hydrolase 7 (Q93009 whole entry): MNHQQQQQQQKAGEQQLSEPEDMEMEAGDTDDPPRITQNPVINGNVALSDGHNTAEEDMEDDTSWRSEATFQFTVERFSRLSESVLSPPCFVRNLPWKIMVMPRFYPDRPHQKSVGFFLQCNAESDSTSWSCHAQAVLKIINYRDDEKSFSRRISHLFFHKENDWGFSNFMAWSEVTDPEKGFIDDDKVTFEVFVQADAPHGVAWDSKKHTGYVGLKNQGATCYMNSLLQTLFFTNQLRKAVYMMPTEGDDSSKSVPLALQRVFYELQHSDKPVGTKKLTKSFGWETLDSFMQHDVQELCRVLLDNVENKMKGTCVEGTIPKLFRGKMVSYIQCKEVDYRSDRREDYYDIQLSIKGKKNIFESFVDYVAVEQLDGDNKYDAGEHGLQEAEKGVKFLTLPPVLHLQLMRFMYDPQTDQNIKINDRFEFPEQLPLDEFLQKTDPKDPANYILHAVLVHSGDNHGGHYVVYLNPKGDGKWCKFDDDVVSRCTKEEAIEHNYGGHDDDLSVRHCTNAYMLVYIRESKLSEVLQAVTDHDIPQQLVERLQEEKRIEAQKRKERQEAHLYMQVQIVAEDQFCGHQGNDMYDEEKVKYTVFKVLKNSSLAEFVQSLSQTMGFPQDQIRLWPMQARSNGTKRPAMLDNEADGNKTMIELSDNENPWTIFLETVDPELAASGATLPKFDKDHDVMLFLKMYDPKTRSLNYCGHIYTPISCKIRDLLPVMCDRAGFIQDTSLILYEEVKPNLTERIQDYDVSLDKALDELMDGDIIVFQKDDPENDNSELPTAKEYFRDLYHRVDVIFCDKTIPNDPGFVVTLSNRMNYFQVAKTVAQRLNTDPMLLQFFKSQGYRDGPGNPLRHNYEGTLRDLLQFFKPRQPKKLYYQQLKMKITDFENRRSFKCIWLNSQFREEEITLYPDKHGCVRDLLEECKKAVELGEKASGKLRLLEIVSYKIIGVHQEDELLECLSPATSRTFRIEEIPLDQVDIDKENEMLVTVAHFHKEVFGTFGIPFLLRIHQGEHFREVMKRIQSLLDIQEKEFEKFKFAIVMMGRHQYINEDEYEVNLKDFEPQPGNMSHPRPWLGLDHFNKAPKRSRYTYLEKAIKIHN

SMILES | IC50
C[C@H](CC(=O)N1CCC(O)(Cn2cnn3cccc3c2=O)CC1)c1ccccc1 | < 200 nM
Cc1ccc(-c2ncc3c(=O)n(CC4(O)CCN(C(=O)C[C@H](C)n5cccn5)CC4)cnn23)cc1 | 1000 nM
O=C(c1ccccc1)c1ccc(C(=O)N2CCC(O)(Cn3cnn4cccc4c3=O)CC2)cc1 | 1000 nM
O=C(Nc1cc2c(=O)n(CC3(O)CCN(C(=O)C4CC4)CC3)cnn2c1)c1csc(-c2ccccc2)n1 | 1000 nM
O=C(c1cccc(-c2ccc3c(c2)OCO3)c1)N1CCC(O)(Cn2cnn3cccc3c2=O)CC1 | 1000 nM
O=C(COc1cccc(Cl)c1Cl)Nc1cc2c(=O)n(CC3(O)CCN(C(=O)C4CC4)CC3)cnn2c1 | 1000 nM
CC(C)(c1ccccc1)c1ccc(C(=O)N2CCC(O)(Cn3cnn4cccc4c3=O)CC2)cc1 | 1000 nM
O=C(c1ccc(S(=O)(=O)c2ccccc2)cc1)N1CCC(O)(Cn2cnn3cccc3c2=O)CC1 | 1000 nM
O=C(c1cccc(-c2cccc(Cl)c2)c1)N1CCC(O)(Cn2cnn3cccc3c2=O)CC1 | 1000 nM
O=C(c1ccc(Cn2ccnc2)cc1)N1CCC(O)(Cn2cnn3cccc3c2=O)CC1 | 1000 nM
O=C(c1ccc(-c2ccc(C(=O)N3CCC(O)(Cn4cnn5cccc5c4=O)CC3)c(Cl)c2)cc1)N1CCCCC1 | 1000 nM
O=C(c1ccc(-c2cnc3ccccc3c2)cc1)N1CCC(O)(Cn2cnn3cccc3c2=O)CC1 | 1000 nM
O=C(c1ccc(-c2ccc(C(=O)N3CCC(O)(Cn4cnn5cccc5c4=O)CC3)c(C3CCCC3)c2)cc1)N1CCCC1 | 1000 nM
Cc1ccc2[nH]ncc2c1-c1cccc(C(=O)N2CCC(O)(Cn3cnn4cccc4c3=O)CC2)c1 | 1000 nM
O=C(c1ccccc1)N1CCC(O)(Cn2cnn3c(-c4ccccc4)ncc3c2=O)CC1 | 1000 nM
O=C(c1cccc(-c2ccccc2F)c1)N1CCC(O)(Cn2cnn3cccc3c2=O)CC1 | 1000 nM
CC(CC(=O)N1CCC(O)(Cn2cnn3cccc3c2=O)CC1)c1ccccc1 (stereo unspecified) | < 1000 nM
NC(=O)c1ccc(-c2cccc(C(=O)N3CCC(O)(Cn4cnn5cccc5c4=O)CC3)c2)cc1 | 1000 nM

SMILES | IC50
COc1ccc(-c2cccc(C(=O)N3CCC(O)(Cn4cnn5cccc5c4=O)CC3)c2)cc1 | 1000 nM
C=C(C)C(=O)Nc1ccccc1-c1ccc(C(=O)N2CCC(O)(Cn3cnn4cccc4c3=O)CC2)cc1 | 1000 nM
Cc1ccc(OCC(=O)Nc2cc3c(=O)n(CC4(O)CCN(C(=O)C5CC5)CC4)cnn3c2)cc1C | 1000 nM
Cc1ccc(-c2ncc3c(=O)n(CC4(O)CCN(C(=O)CC(C)n5cccn5)CC4)cnn23)cc1 (stereo unspecified) | 1000 nM
O=C(c1cccc(-c2ccccc2)c1)N1CCC(O)(Cn2cnn3cccc3c2=O)CC1 | 1000 nM
O=C(c1cccc(-c2ccc3scnc3c2)c1)N1CCC(O)(Cn2cnn3cccc3c2=O)CC1 | 1000 nM
CCN(c1ccccc1)c1ccc(C(=O)N2CCC(O)(Cn3cnn4cccc4c3=O)CC2)cc1 | 1000 nM
Cc1ccccc1-c1cccc(C(=O)N2CCC(O)(Cn3cnn4cccc4c3=O)CC2)c1 | 1000 nM
Cc1ccc2c(=O)n(CC3(O)CCN(C(=O)C(C)Cc4ccccc4)CC3)cnn12 (stereo unspecified) | 1000 nM
Cc1ccc2cc(-c3ccc(C(=O)N4CCC(O)(Cn5cnn6cccc6c5=O)CC4)cc3)ccc2n1 | 1000 nM
O=C(c1ccc(Cc2cccs2)cc1)N1CCC(O)(Cn2cnn3cccc3c2=O)CC1 | 1000 nM
Cc1ccc(-c2cccc(C(=O)N3CCC(O)(Cn4cnn5cccc5c4=O)CC3)c2)cc1 | 1000 nM
CC(CC(=O)N1CCC(O)(Cn2cnn3cc(Cl)cc3c2=O)CC1)c1ccccc1 (stereo unspecified) | 1000 nM
O=C(c1ccc(-c2ccc3ncccc3c2)cc1)N1CCC(O)(Cn2cnn3cccc3c2=O)CC1 | 1000 nM
CN(C)C(=O)c1ccc(-c2cccc(C(=O)N3CCC(O)(Cn4cnn5cccc5c4=O)CC3)c2)cc1 | 1000 nM
CC(CC(=O)N1CCC(O)(Cn2cnn3cccc3c2=O)CC1)n1cccc1 (stereo unspecified) | < 200 nM
Cc1cc(C)n(Cc2ccc(C(=O)N3CCC(O)(Cn4cnn5cccc5c4=O)CC3)cc2)n1 | 1000 nM
Cc1cc2c(=O)n(CC3(O)CCN(C(=O)CC(C)c4ccccc4)CC3)cnn2c1 (stereo unspecified) | 1000 nM
